Test results as given in patent US20230002446A1, “ANTI-INFLAMMATORY AGENTS” (The University of Sydney, priority 2019, published 2023).
Where a SMILES comes first, the peptide text is derived from it. [ ]: non-standard residue; d: D form. AEEA = NCCOCCOCC(=O)O

Experiments:
C57BL/6 mice [1] = experiment: contact hypersensitivity model (DNFB-induced contact dermatitis); type: in vivo
Experimental: FIG. 2—Peptide administration reduces inflammation in a mouse model of contact dermatitis and reduces myeloid inflammatory infiltrate. (A) Experimental outline of DNFB-induced contact dermatitis. (B) Ear thickness of peptide RP23 (SEQ ID NO:12) treated mice, repeated 3 times. […] Data are presented as mean±S.E.M. Statistical significance was determined (B) by multiple t tests (C) by ANOVA with Dunnett's multiple comparison test, *p<0.05, **p<0.01, ***p<0.001.
FIG. 3—The peptide effect is dependent on the peptide sequence and dose. (A) PBS, scrambled peptide or peptide MUC1SP ([…]; SEQ ID NO: 3) was injected subcutaneously seven days prior to sensitising C57BL/6 mice (n=5) with DNFB on the abdomen. […] (B) A comparison of the immunosuppressive effect of peptide RP23 (SEQ ID NO:12) and MUC1SP (SEQ ID NO: 3). (C) SEQ ID NO:12 suppressed immunity in a dose dependent manner. (D) Addition of GM-CSF to the SEQ ID NO:12 injection abrogated the immune suppression. Data are the means±S.E.M.
FIG. 8—Effects of peptide variants on the inflammatory response. Mice received one injection of PBS or one of the following peptides (10 nmol) subcutaneously at the abdomen (A) peptide RP23 (SEQ ID NO: 12), peptide AF594-RP23 (SEQ ID NO: 21), peptide K4-G3-MUC1SP (SEQ ID NO:22) or MUC1SP C fragment (SEQ ID NO: 2). Five days later, mice were challenged with DNFB at a distal site, on the ears. The thickness of the ears was measured over 72 hours.
FIG. 9—Effects of further peptide variants, without N-terminal methionine, on the inflammatory response in a model of contact dermatitis. Mice received one injection of PBS, RP23 (SEQ ID NO:12) (10 nmol) or one of the peptide variants indicated in the table including SEQ ID NO: 32 and 35 as described herein (equivalent molar amount of RP23), subcutaneously at the abdomen. Photoleucine replaces leucine where indicated, these molecules used for photo-crosslinking studies. Seven days later, abdominal skin was sensitised with a contact irritant (DNFB) and five days later, mice were challenged with DNFB at a distal site, on the ears. (A) Specific increase in ear thickness over 72 hours, data are the means+/−SEM (n=6). Statistical significance was determined by ANOVA with Dunnett's multiple comparison test to PBS only control, **p<0.01. (B) Specific increase in ear thickness at 24 hours post-challenge. Data are the means+/−SEM (n=6). Statistical significance was determined by t-test to relevant control, as indicated, *p<0.05, **p<0.01, ns=not significant.
The abdomens of 8-week old female C57BL/6 mice (Australian BioResources) were coarse shaved. A minimum of 24 hours later, RP23 (SEQ ID NO:12) was delivered via sub-cutaneous injection at the abdomen in 50 μl phosphate buffered saline. Seven days later, mice were topically sensitised to 1-fluoro-2,4-dinitrobenzene (DNFB, 0.5 vol %) in olive oil/acetone (1:4, v/v, 30 μl) via application to the shaved abdomen. Five days after sensitisation, mice were challenged on the ears with topical DNFB (0.25 vol %) in olive oil/acetone (1:4, v/v, 15 μl per ear). Ear thickness was measured daily using manual callipers from immediately before challenge, up to 96 hours post challenge. Positive controls for ear swelling consisted of mice that were injected with PBS instead of RP23. Negative or irritant controls consisted of a group of mice that received the DNFB challenge, but not the sensitisation. The average of the change in ear thickness from this control group was subtracted from the change in ear thickness of other samples to account for non-specific irritation due to the application of DNFB, olive oil and acetone.
The inventors then conducted additional in vivo studies, using a model of contact hypersensitivity, to determine the portion of RP23 responsible for its immunomodulatory activity. Mice received one injection of peptide (10 nmol) subcutaneously at the abdomen, seven days prior to sensitisation of the skin with a contact irritant (DNFB). […]

[2] = system: human macrophages/monocytes; type: cell-based
Experimental: (§1) FIG. 6—Peptide administration is not cytostatic or cytotoxic to murine and human macrophages/monocytes. Cytostatic/cytotoxic effect of peptide RP23 (SEQ ID NO:12) was assessed after overnight incubation (A) by WST-1 assay in RAW and THP-1 cell lines (data are the means of 2 replicates) (B) by LDH assay in primary murine BMDMs or human MDMs (data are mean±S.E.M).

[3] = system: murine macrophages/monocytes; type: cell-based
Experimental: as §1

C57BL/6 mice [4] = experiment: oxazolone murine model of atopic dermatitis; type: in vivo; details: injection at day -1, or both day -7 and day -1; compared to PBS
From the text: (§2) FIG. 13. RP23 treatment reduces inflammation in a murine model of atopic dermatitis. Ears and shaved backs of C57BL/6 female mice were sensitised (day 0) and challenged (day 7, 10, 14, 17, 19, 21, 23, 25 and 27) with topical application of the irritant oxazolone or vehicle only. Injection of mice with RP23 at day −1, or both day −7 and day −1, is compared to injection with PBS only (day −7 and day −1) or topical application of steroid (0.01% betamethasone dipropionate, 30 mgs) applied on the back at the time of every oxazolone application. Ear thickness was measured with manual callipers. Data are the means+/−SEM (n=5).
as §2, with “Ears” for “FIG. 13. RP23 treatment reduces inflammation in a murine model of atopic dermatitis. Ears”, “−1, was” for “−1, is”, “callipers.” for “callipers. Data are the means+/−SEM (n=5).”

For `CSCC[C@H](NC(=O)COCCOCCNC(=O)[C@H](CCCCN)NC(=O)[C@H](CCCCN)NC(=O)[C@H](CCCCN)NC(=O)[C@@H](N)CCCCN)C(=O)N[C@H](C(=O)N1CCC[C@H]1C(=O)NCC(=O)N[C@H](C(=O)N[C@@H](CCC(N)=O)C(=O)N[C@@H](CO)C(=O)N1CCC[C@H]1C(=O)N[C@@H](Cc1ccccc1)C(=O)N[C@@H](Cc1ccccc1)C(=O)N[C@@H](CC(C)C)C(=O)N[C@@H](CC(C)C)C(=O)N[C@@H](CC(C)C)C(=O)N[C@@H](CC(C)C)C(=O)N[C@@H](CC(C)C)C(=O)N[C@H](C(=O)N[C@H](C(=O)N[C@@H](CC(C)C)C(=O)N[C@H](C(=O)N[C@H](C(=O)N[C@H](C(=O)O)C(C)C)C(C)C)[C@@H](C)O)C(C)C)[C@@H](C)O)[C@@H](C)O)[C@@H](C)O` [RP23] (H-KKKK[AEEA]MTPGTQSPFFLLLLLTVLTVV-OH), the “inflammatory response (ear thickness over 72 hours)” value (C57BL/6 mice [1]; 10 nmol subcutaneously at the abdomen, compared to PBS (FIG. 8)) was “led to a reduced inflammatory response”, the “immune suppression compared to SEQ ID NO: 3 (MUC1SP)” value (C57BL/6 mice [1]; FIG. 3b) was “without significantly altering immune suppression” and the “suppression of ear swelling with GM-CSF included” value (C57BL/6 mice [1]; GM-CSF added to the injection (FIG. 3d)) was “abrogated much of the suppression”. For the same compound, the “reduction in ear swelling compared to controls” value (C57BL/6 mice [1]; dose-response, 2, 5 or 10 nmol) was “up to 100%”, the “elicitation of inflammation (ear thickness)” value (C57BL/6 mice [1]; single nanomolar injection prior to sensitisation) was “significantly suppress elicitation of inflammation” and the “inflammatory myeloid cell skin infiltrate” value (C57BL/6 mice [1]; single nanomolar injection prior to sensitisation, flow cytometry 72 hours post challenge) was “reduction”. For the same compound, the “cytostatic or cytotoxic effects” value [2] was “without causing any cytostatic or cytotoxic effects”, the “cytostatic or cytotoxic effects” value [3] was “without causing any cytostatic or cytotoxic effects” and the “inflammation in the ears (ear thickness)” value (C57BL/6 mice [4]) was “reduced inflammation in the ears”.
